From PMC2267459, “Efficient display of active lipase LipB52 with a Pichia pastoris cell surface display system and comparison with the LipB52 displayed on Saccharomyces cerevisiae cell surface” (BMC Biotechnology, 2008)

Target: T1, LipB52 (Pseudomonas fluorescens, UniProt Q6GX93)
T1 construct: lipase fused at its N-terminus to the C-terminus of the FLO flocculation domain (Saccharomyces cerevisiae ATCC 60715) as display anchor
T1 sequence (Q6GX93 1-617): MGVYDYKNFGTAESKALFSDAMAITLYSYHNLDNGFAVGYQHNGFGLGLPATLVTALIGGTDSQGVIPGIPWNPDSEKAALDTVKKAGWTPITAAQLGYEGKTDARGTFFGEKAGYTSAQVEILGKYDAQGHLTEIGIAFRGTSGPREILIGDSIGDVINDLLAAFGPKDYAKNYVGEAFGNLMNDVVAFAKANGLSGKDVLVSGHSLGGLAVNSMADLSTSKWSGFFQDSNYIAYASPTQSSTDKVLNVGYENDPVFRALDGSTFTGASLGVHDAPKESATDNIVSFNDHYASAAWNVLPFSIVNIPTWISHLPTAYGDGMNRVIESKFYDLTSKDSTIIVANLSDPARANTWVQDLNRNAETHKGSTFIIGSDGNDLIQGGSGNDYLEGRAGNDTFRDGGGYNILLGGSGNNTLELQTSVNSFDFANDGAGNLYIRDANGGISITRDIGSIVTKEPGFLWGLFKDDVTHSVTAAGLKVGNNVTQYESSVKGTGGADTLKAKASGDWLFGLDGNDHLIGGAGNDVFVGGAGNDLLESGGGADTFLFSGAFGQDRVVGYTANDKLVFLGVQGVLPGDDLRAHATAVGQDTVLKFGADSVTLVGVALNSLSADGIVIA
Experiment: p-nitrophenol release by displayed whole cells
Type: cell-based
Conditions: yeast surface-displayed (whole-cell) enzyme

Question: `CCCCCCCCCC(=O)Oc1ccc([N+](=O)[O-])cc1` [C10, p-nitrophenol-caprate] was tested. Which “p-nitrophenol release by displayed whole cells” value (pH 8.0, 40 °C) did it give?
Answer: the optimum substrate was p-nitrophenol-caprate (C10)

Question: With `CCCCCCCCCCCC(=O)Oc1ccc([N+](=O)[O-])cc1` [C12, p-nitrophenol ester (C12)] as the molecule, how does the “p-nitrophenol release by displayed whole cells” value (conditions not stated for this substrate) read?
Answer: exhibited evident hydrolysis activity towards the p-nitrophenol ester
